The record followed here is patent publication US11300570B2, “Therapeutic and diagnostic methods for cancer” (Genentech, Inc., priority 2016, dated 2022).

Assay [1] concerns locally advanced or metastatic NSCLC. Put plainly: OAK Phase III randomized trial, atezolizumab vs docetaxel, in 2L+ NSCLC, efficacy by tTMB. Conditions: 2L+ OAK. It is filed as in vivo, human. From the text:
(§1) Patients were eligible for enrollment in the POPLAR study if they had locally advanced or metastatic (e.g., stage IIIB, stage IV, or recurrent) NSCLC; disease progression during or following treatment with a prior platinum-containing regimen for locally advanced, unresectable/inoperable, or metastatic NSCLC, or disease recurrence within 6 months of treatment with a platinum-based adjuvant/neoadjuvant regimen; measurable disease, as defined by RECIST v1.1; and an ECOG performance status of 0 or 1. Participants were randomized to receive either atezolizumab at a dose of 1200 mg intravenously every three weeks or docetaxel 75 mg per meter square (mg/m^2) intravenously every three weeks. Treatment with atezolizumab could be continued as long as participants were experiencing clinical benefit, i.e., in the absence of unacceptable toxicity or symptomatic deterioration attributed to disease progression. Pre-treatment tumor samples from patients in the Phase III OAK trial (Clinical Trial ID No.: NCT02008227) were also evaluated for tTMB. Patients were eligible for enrollment in the OAK study if they had locally advanced or metastatic (e.g., stage IIIB, stage IV, or recurrent) NSCLC; disease progression during or following treatment with a prior platinum-containing regimen for locally advanced, unresectable/inoperable, or metastatic NSCLC, or disease recurrence within 6 months of treatment with a platinum-based adjuvant/neoadjuvant regimen; measurable disease, as defined by RECIST v1.1; and an ECOG performance status of 0 or 1. Participants were randomized to receive either atezolizumab at a dose of 1200 mg intravenously every three weeks or docetaxel 75 mg per square meter (mg/m^2) intravenously every three weeks. Treatment with atezolizumab could be continued as long as participants were experiencing clinical benefit, i.e., in the absence of unacceptable toxicity or symptomatic deterioration attributed to disease progression.
(§2) To identify somatic mutations, tumor samples (e.g., archival tumor samples) were processed as described in Frampton et al. Nat. Biotechnol. 31:1023-31, 2013. Sequencing libraries were constructed to sequence and analyze samples. In addition to standard mutation processing, a mutation load estimation algorithm was applied that, based on the number of somatic mutations and/or rearrangements detected in Table 1 or Table 2, respectively, extrapolates to the exome or the genome as a whole. For purposes of mutation load estimation, all coding short variant alterations, base substitutions, and indels detected in the genes listed in Table 1 and Table 2 were counted. Further, all coding alterations (base substitutions and indels), including synonymous alterations, with the exception of known oncogenic driver mutations, in the genes listed in Table 1 and Table 2 were counted. However, numerous classes of detected alterations were not counted: non-coding alterations; alterations with known (occurring as known somatic alterations in the COSMIC database (Forbes et al. (2014) Nucl. Acids Res. 43:D805-11) and likely (truncations in tumor suppressor genes) functional status; known germline alterations in the dbSNP database (Sherry et al. (2001) Nucleic Acids Res. 29(1):308-11); germline alterations occurring with two or more counts in the ExAC database (Exome Aggregation Consortium (ExAC), Cambridge, Mass.); alterations that are predicted to be germline in the specimen being assessed; and alterations that are predicted to be germline in a cohort of >60,000 clinical specimens. Finally, to calculate the mutation load per megabase, the total number of mutations counted was divided by the coding region target territory of the test, which was 1.110 megabases (Mb) for the current version of the test. The average median coverage value for all samples was 490.
The BEP was defined as patients with at least one tTMB measurement from a baseline tumor sample. […]

Assay [2] concerns locally advanced or metastatic NSCLC (PD-L1-unselected patients). The assay is described as follows: POPLAR Phase II randomized trial, atezolizumab vs docetaxel, in 2L+ PD-L1-unselected NSCLC, efficacy by tTMB. It is filed as in vivo, human.
Source text: as §1
Data from the single-arm, PD-L1-selected trials BIRCH and FIR were combined and analyzed to examine the association between tTMB and clinical outcomes among PD-L1-selected patients. Data from the randomized, PD-L1-unselected trial, POPLAR, were analyzed separately and treatment effects between the atezolizumab- and docetaxel-treatment arms were compared.
as §2, with “Finally, to calculate the mutation load per megabase, the total number of mutations counted was divided by the coding region target territory of the test, which was 1.110 megabases (Mb) for the current version of the test. The average median coverage value for all samples was 490.” left out

Setting [3] is: BEP (evaluable for TMB) (n = 174 atezolizumab, 186 docetaxel).
Setting [4] is: tTMB score <9 mut/Mb (n = 91 atezolizumab, 87 docetaxel).
Where [5] appears, read: tTMB score <16 mut/Mb (n = 135 atezolizumab, 136 docetaxel).
Where [6] appears, read: tTMB score ≥9 mut/Mb (n = 83 atezolizumab, 99 docetaxel).
[7] abbreviates: tTMB score ≥16 mut/Mb (n = 39 atezolizumab, 50 docetaxel).

As to `CC(=O)O[C@@]12CO[C@@H]1C[C@H](O)[C@@]1(C)C(=O)[C@H](O)C3=C(C)[C@@H](OC(=O)[C@H](O)[C@@H](NC(=O)OC(C)(C)C)c4ccccc4)C[C@@](O)([C@@H](OC(=O)c4ccccc4)[C@H]21)C3(C)C` [docetaxel], the “Median OS” value in assay [1] (setting [3]) was found to be 9.8 months; in assay [1] (ITT (n = 425 per arm)), 9.6 months; in assay [1] (setting [4]), 10.8 months; in assay [1] (setting [5]) it was 10.1 months; in assay [1] (setting [6]), 9.7 months; in assay [1] (setting [7]) it was 9.7 months. For the same molecule, the “Median PFS” value worked out at 3.81 months in assay [1] (setting [3]); 4.0 months in assay [1] (ITT (n = 425 per arm)); 4.1 months in assay [1] (setting [4]); 4.0 months in assay [1] (setting [5]); 3.6 months in assay [1] (setting [6]); 3.5 months in assay [1] (setting [7]). Moreover, the “ORR (confirmed per RECIST v1.1) with increasing tTMB” value in assay [2] (POPLAR, per treatment arm) is on record as “did not experience improvement in ORR”. Besides, the ORR is 15% in assay [2] (POPLAR, BEP (n = 54 atezolizumab vs 38 docetaxel)); 15% vs 15% in assay [2] (POPLAR, ITT (n = 144 atezolizumab vs 143 docetaxel)); 10% in assay [2] (POPLAR, tTMB quantile ≥25%); 4% in assay [2] (POPLAR, tTMB quantile ≥50% (median)); 8% in assay [2] (POPLAR, tTMB quantile ≥75%). Moreover, the “association of tissue TMB with efficacy” value in assay [2] (docetaxel arm, 2L+ NSCLC, randomized setting) is given as “not associated with the efficacy”.
